Source: publication PMC10762035, “Molecular basis of human trace amine-associated receptor 1 activation” (Nature Communications, 2024)
Residue numbers refer to the chain shown, from its start. Values joined by “and” are separate entries in the source; they are usually repeats but may differ in a detail not shown here. Equal entries are not always repeated.

How the values were obtained:
Format in all cases: cell-based
hTA1 R83H = target: T1, hTA1 R83H (Homo sapiens, UniProt Q96RJ0, R83H); assay: GloSensor cAMP accumulation assay, R83H mutant; details: for Emax values, Mean: β-PEA = 100;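 for all read-outs here: cells transiently co-expressing hTA1 and a cAMP GloSensor, luminescence read 30 min after agonist addition at room temperature, concentration–response fitted by non-linear regression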
T1 construct: expressed in transfected cells; host or cells: HEK293T
T1 sequence (Q96RJ0 1-339 R83H): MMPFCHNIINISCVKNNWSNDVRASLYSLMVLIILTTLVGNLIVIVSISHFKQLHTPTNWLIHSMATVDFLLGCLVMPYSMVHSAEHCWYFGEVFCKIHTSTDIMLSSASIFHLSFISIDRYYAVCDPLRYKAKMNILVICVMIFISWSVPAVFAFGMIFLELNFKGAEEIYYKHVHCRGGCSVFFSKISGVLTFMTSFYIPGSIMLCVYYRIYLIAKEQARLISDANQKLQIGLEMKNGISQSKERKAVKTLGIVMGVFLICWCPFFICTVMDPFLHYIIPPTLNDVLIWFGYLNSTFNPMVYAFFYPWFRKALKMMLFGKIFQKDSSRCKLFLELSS

[1] = target: T2, β2AR-Nterm-hTA1-F112^3.41W (CryoEM Construct) (Homo sapiens, UniProt Q96RJ0, F112W); assay: GloSensor cAMP accumulation assay, cryoEM construct; details: for Emax values, Mean / pEC50 values, Mean: Cryo EM Construct, mean of each independent experiment (3 replicates); for Normalized Luminescence Counts (N=2) / Span ± SEM (Emax normalized to β-PEA) / pEC50 ± SEM / EC50: CryoEM Construct; for Normalized Luminescence Counts (N=2): log[Compound], M = -5, single replicates; for Span ± SEM (Emax normalized to β-PEA) / pEC50 ± SEM / EC50: n=2; for EC50: read-out: EC50;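 for Normalized Luminescence Counts (N=2): normalized to the maximum response of β-PEA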;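 for all read-outs here: cells transiently co-transfected with the receptor construct and GloSensor cAMP biosensor, luminescence read after 30 min compound exposure at room temperature in the dark as cAMP accumulation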
T2 construct: FLAG (N); 10xHis (N); TEV protease site (N); expressed in transfected cells; host or cells: HEK293T
T2 sequence (Q96RJ0 with tags, fused parts or gaps F112W): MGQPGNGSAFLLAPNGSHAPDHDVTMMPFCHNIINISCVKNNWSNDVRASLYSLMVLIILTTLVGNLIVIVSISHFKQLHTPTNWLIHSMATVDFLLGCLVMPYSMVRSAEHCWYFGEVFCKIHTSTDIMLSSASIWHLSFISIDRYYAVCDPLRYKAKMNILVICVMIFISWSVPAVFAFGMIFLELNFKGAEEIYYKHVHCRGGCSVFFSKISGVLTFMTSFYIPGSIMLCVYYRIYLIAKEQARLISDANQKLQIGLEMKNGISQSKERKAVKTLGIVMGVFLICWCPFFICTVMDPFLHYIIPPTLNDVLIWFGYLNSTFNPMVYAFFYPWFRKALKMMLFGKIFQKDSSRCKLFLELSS

hTA1 T271N = target: T3, hTA1 T271N (Homo sapiens, UniProt Q96RJ0, T271N); assay: GloSensor cAMP accumulation assay, T271N mutant; details: for ΔpEC50 values (each mutant value - WT average), Mean: T271N mutant minus WT average; for ΔpEC50 values (each mutant value - WT average), Mean / pEC50 values, Mean / Emax values, Mean: Figure 5B; for pEC50 values, Mean / Emax values, Mean: T271N mutant, each row one independent experiment (3 replicates); for Emax values, Mean: β-PEA = 100; for EC50: read-out: EC50
T3 construct: expressed in transfected cells; host or cells: HEK293T
T3 sequence (Q96RJ0 1-339 T271N): T1 sequence (Q96RJ0 1-339 R83H) with H83R, T271N

hTA1 C5S = target: T4, hTA1 C5S (Homo sapiens, UniProt Q96RJ0, C5S); assay: GloSensor cAMP accumulation assay, C5S mutant; details: for Span ± SEM (Emax normalized to β-PEA) / pEC50 ± SEM / EC50: C5S, n=2; for EC50: read-out: EC50; for pEC50 values, Mean / Emax values, Mean: hTA1 C5S, mean of 3 replicates, one line per independent experiment; for Emax values, Mean: β-PEA = 100; for C5S - Normalized Luminescence Counts (N=2): log[Compound], single wells
T4 construct: expressed in transfected cells; host or cells: HEK293T
T4 sequence (Q96RJ0 1-339 C5S): T1 sequence (Q96RJ0 1-339 R83H) with C5S, H83R

hTA1 C13S = target: T5, hTA1 C13S (Homo sapiens, UniProt Q96RJ0, C13S); assay: GloSensor cAMP accumulation assay, C13S mutant; details: for Emax values: Mean of fit per experiment; for Span ± SEM (Emax normalized to β-PEA) / pEC50 ± SEM / EC50: n=2; for EC50: read-out: EC50; for pEC50 values, Mean: hTA1 C13S, mean of 3 replicates, one line per independent experiment; for C13S - Normalized Luminescence Counts (N=2): log[Compound], single wells
T5 construct: expressed in transfected cells; host or cells: HEK293T
T5 sequence (Q96RJ0 1-339 C13S): T1 sequence (Q96RJ0 1-339 R83H) with C13S, H83R

hTA1 W264F = target: T6, hTA1 W264F (Homo sapiens, UniProt Q96RJ0, W264F); assay: GloSensor cAMP accumulation assay, W264F mutant; details: for ΔEmax values (each mutant value - WT average): W246F mutant (so in the source) minus WT average; for Emax values, Mean: β-PEA = 100;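 for all read-outs here: cells transiently transfected with receptor plus GloSensor, luminescence read 30 min after agonist addition at room temperature, concentration-response curves fitted by log(agonist) vs response regression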
T6 construct: expressed in transfected cells; host or cells: HEK293T
T6 sequence (Q96RJ0 1-339 W264F): T1 sequence (Q96RJ0 1-339 R83H) with H83R, W264F

[2] = R83H mutant, each line an independent experiment, 3 replicates
[3] = Cryo EM Construct minus WT average
[4] = W246F mutant (so in the source), each line an independent experiment, 3 replicates

## Cc1c(F)cccc1[C@H]1COC(N)=N1 [Ro5263397]
hTA1 R83H; R83H mutant minus WT average
  ΔEmax values (each mutant value - WT average): -44.7513
  ΔpEC50 values (each mutant value - WT average): -0.3934 and -0.2739
hTA1 R83H; [2]
  pEC50 values, Mean: 8.438 and 8.557
  Emax values, Mean: 41.952 and 25.7686
hTA1 R83H; R83H, n=2
  Span ± SEM (Emax normalized to β-PEA): 33.86 ± 8.09
  pEC50 ± SEM: 8.5 ± 0.15
hTA1 R83H; R83H, n=2, read-out: EC50
  EC50: 3.18 nM
[1]; [3]
  ΔEmax values (each mutant value - WT average), Mean: 19.0137 and 21.294
  ΔpEC50 values (each mutant value - WT average), Mean: -0.1667 and 0.1313
[1]
  Emax values, Mean: -0.1667 and 0.1313
  pEC50 values, Mean: 8.664 and 8.962
  Normalized Luminescence Counts (N=2): 130.633 and 139.904 and 147.826 and 114.773
  Span ± SEM (Emax normalized to β-PEA): 106.6 ± 2.69
  pEC50 ± SEM: 8.82 ± 0.06
  EC50: 1.5 nM
hTA1 T271N
  ΔpEC50 values (each mutant value - WT average), Mean: -0.511 and -0.5494
  pEC50 values, Mean: 8.32 and 8.282
  Emax values, Mean: 116.619 and 99.549
hTA1 T271N; T271N, n=2
  Span ± SEM (Emax normalized to β-PEA): 108.08 ± 8.54
  pEC50 ± SEM: 8.3 ± 0.07
  EC50: 5 nM
hTA1 C5S
  Span ± SEM (Emax normalized to β-PEA): 85.5 ± 2.16
  pEC50 ± SEM: 8.41 ± 0.07
  EC50: 3.89 nM
  pEC50 values, Mean: 8.404 and 8.415
  Emax values, Mean: 87.6591 and 83.3363
hTA1 C5S; hTA1 C5S minus WT average
  ΔpEC50 values (each mutant value - WT average), Mean: -0.4275 and -0.4158
hTA1 C5S; M = -5
  C5S - Normalized Luminescence Counts (N=2): 85.0708 and 100.74 and 87.5995 and 113.126 and 96.6929 and 89.5813
hTA1 C5S; M = -5.522
  C5S - Normalized Luminescence Counts (N=2): 97.1276 and 85.703 and 92.1378 and 95.6573 and 94.8978 and 70.801
hTA1 C5S; M = -6
  C5S - Normalized Luminescence Counts (N=2): 93.0635 and 85.8836 and 79.9907 and 67.4868 and 91.9288 and 67.763
hTA1 C5S; M = -6.522
  C5S - Normalized Luminescence Counts (N=2): 88.5027 and 85.5675 and 89.6542 and 93.5169 and 82.6077 and 78.2579
hTA1 C5S; M = -7
  C5S - Normalized Luminescence Counts (N=2): 87.2609 and 83.7612 and 87.2157 and 111.607 and 73.6318 and 82.4696
hTA1 C5S; M = -7.522
  C5S - Normalized Luminescence Counts (N=2): 71.4335 and 67.6629 and 81.3002 and 85.1624 and 76.2555 and 81.6411
hTA1 C5S; M = -8
  C5S - Normalized Luminescence Counts (N=2): 61.928 and 52.9645 and 61.8152 and 50.2945 and 70.0415 and 59.7537
hTA1 C5S; M = -8.522
  C5S - Normalized Luminescence Counts (N=2): 48.2456 and 39.1466 and 43.2332 and 39.9378 and 36.8998 and 46.1518
hTA1 C5S; M = -9
  C5S - Normalized Luminescence Counts (N=2): 23.0031 and 19.2551 and 16.9296 and 21.986 and 33.2404 and 18.948
hTA1 C5S; M = -9.522
  C5S - Normalized Luminescence Counts (N=2): 10.2012 and 7.989 and 6.476 and 12.3887 and 12.803 and 8.1079
hTA1 C13S; C13S
  Emax values: 73.5469 and 88.9072
  Span ± SEM (Emax normalized to β-PEA): 81.23 ± 7.68
  pEC50 ± SEM: 8.6 ± 0.08
  EC50: 2.48 nM
hTA1 C13S
  pEC50 values, Mean: 8.7547 and 8.4539
hTA1 C13S; M = -5
  C13S - Normalized Luminescence Counts (N=2): 76.1278 and 93.1423 and 84.8444 and 95.4829 and 105.462 and 103.819
hTA1 C13S; M = -5.522
  C13S - Normalized Luminescence Counts (N=2): 68.8196 and 89.374 and 78.4497 and 85.6471 and 106.265 and 88.9317
hTA1 C13S; M = -6
  C13S - Normalized Luminescence Counts (N=2): 64.1759 and 93.599 and 66.6881 and 75.8649 and 92.3769 and 86.7896
hTA1 C13S; M = -6.522
  C13S - Normalized Luminescence Counts (N=2): 56.487 and 80.4671 and 60.7882 and 74.8831 and 89.3601 and 80.042
hTA1 W264F
  ΔEmax values (each mutant value - WT average): -34.1318
hTA1 W264F; [4]
  pEC50 values, Mean: 5.605 and 5.96
  Emax values, Mean: 52.5716 and 62.1592
hTA1 W264F; W264F
  decrease in potency vs wild type: more than 1000 fold
hTA1 W264F; W264F, n=2
  Span ± SEM (Emax normalized to β-PEA): 57.37 ± 4.79
  pEC50 ± SEM: 5.78 ± 0.06

## NCCc1ccc(Oc2ccc(O)cc2)c(I)c1 [T1AM, 3-iodothyronamine]
hTA1 R83H; R83H mutant minus WT average
  ΔEmax values (each mutant value - WT average): -50.5458
hTA1 R83H; [2]
  Emax values, Mean: 19.9005 and -6.007
hTA1 R83H; R83H, n=2
  Span ± SEM (Emax normalized to β-PEA): 6.95 ± 12.95
[1]; [3]
  ΔEmax values (each mutant value - WT average), Mean: 57.4068 and 36.3707
[1]
  Emax values, Mean: -0.05087 and 0.4178
  pEC50 values, Mean: 6.078 and 6.547
  Normalized Luminescence Counts (N=2): 123.162 and 140.16 and 121.528 and 161.688
  Span ± SEM (Emax normalized to β-PEA): 115.44
  pEC50 ± SEM: 6.3 ± 0.04
  EC50: 491 nM
hTA1 T271N
  ΔpEC50 values (each mutant value - WT average), Mean: 0.1858 and 0.05902
  pEC50 values, Mean: 6.315 and 6.188
  Emax values, Mean: 147.043 and 92.5588
hTA1 T271N; T271N, n=2
  pEC50 ± SEM: 6.25 ± 0.03
  EC50: 560 nM
hTA1 T271N; T271N, relative to β-PEA
  Emax: 119.8%
hTA1 C5S
  Span ± SEM (Emax normalized to β-PEA): 81.19 ± 8.03
  pEC50 ± SEM: 5.95 ± 0.04
  EC50: 1110 nM
  pEC50 values, Mean: 6.184 and 5.721
  Emax values, Mean: 73.1551 and 89.2227
hTA1 C5S; M = -5
  C5S - Normalized Luminescence Counts (N=2): 66.8501 and 72.156 and 68.5661 and 75.0127 and 63.7584 and 82.7458
hTA1 C5S; M = -5.522
  C5S - Normalized Luminescence Counts (N=2): 58.0446 and 60.9798 and 52.4226 and 59.2704 and 49.2589 and 55.9562
hTA1 C13S; C13S
  ΔpEC50 values (each mutant value - WT average): -0.156 and -0.1145
  Emax values: 53.0882 and 64.9586
  Span ± SEM (Emax normalized to β-PEA): 59.02 ± 5.94
  pEC50 ± SEM: 5.99 ± 0.05
  EC50: 1010 nM
hTA1 C13S
  pEC50 values, Mean: 5.973 and 6.015
hTA1 C13S; M = -5
  C13S - Normalized Luminescence Counts (N=2): 54.3554 and 36.9604 and 53.1374 and 65.6185 and 52.4268 and 54.7653
hTA1 C13S; M = -5.522
  C13S - Normalized Luminescence Counts (N=2): 42.3654 and 30.6418 and 38.8635 and 53.123 and 40.9666 and 58.8174
hTA1 C13S; M = -6
  C13S - Normalized Luminescence Counts (N=2): 26.7212 and 21.3162 and 26.3787 and 35.2187 and 26.4539 and 31.7735
hTA1 C13S; M = -6.522
  C13S - Normalized Luminescence Counts (N=2): 13.0564 and 10.1636 and 13.437 and 17.4036 and 12.4411 and 15.1722
hTA1 W264F
  ΔEmax values (each mutant value - WT average): -30.8369
hTA1 W264F; [4]
  Emax values, Mean: 17.7915
hTA1 W264F; W264F, n=2
  Span ± SEM (Emax normalized to β-PEA): 28.7 ± 10.91
  pEC50 ± SEM: 4.95 ± 0.97
hTA1 W264F; W264F, n=2, read-out: EC50
  EC50: 11300 nM
